Measured values from ChEMBL document CHEMBL3301361, “Experimental in vitro DMPK and physicochemical data on a set of publicly disclosed compounds”.

assay: physchem; conditions: octan-1-ol/water, pH 7.4, LogD7.4

`CC(C)Cn1c(=O)n(C)c(=O)c2c(C(=O)N3CC=CC3)c(Cc3ccccc3C(F)(F)F)sc21` and `Cn1cc(C#N)cc1-c1c2c(=O)n(C)c(=O)n(CC3CC3)c2nn1Cc1ccnc2ccc(Cl)cc12` are within 0.2 log units of each other in logD: 3.53 for the first, 3.67 for the second.

`Cc1cc(NCc2ccccc2)nc2ccccc12` and `Cc1[nH]c2nc(NCc3cccc(Br)c3)nn2c(=O)c1Cc1ccccc1` are within 0.2 log units of each other in logD: 3.69 for the first, 3.68 for the second.

`Cc1ccc(Oc2ccc(C(=O)NCc3ccncc3)cc2)cc1` and `COCCNC(=O)c1ccc(Nc2ncc3cc(-c4ccnc(C)c4)ccc3n2)cc1` are within 0.2 log units of each other in logD: 3.65 for the first, 3.56 for the second.

`CCNc1nc(N)c(C(=O)c2ccc(Cl)s2)s1` and `CN(C)c1ccnc2sc(C(=O)NCc3ccccc3)c(N)c12` are within 0.2 log units of each other in logD: 3.63 for the first, 3.62 for the second.

`O=C(Nc1nc(-c2ccccc2)cs1)c1cccnc1` and `CC[C@H](NC(=O)c1c([S+](C)[O-])c(-c2cccs2)nc2ccccc12)c1ccccc1` (some centres not stated) are within 0.2 log units of each other in logD: 3.62 for the first, 3.56 for the second.

`Cc1[nH]c2nc(NCc3cccc(Cl)c3)nn2c(=O)c1Cc1ccccc1` and `O=C(NC1Cc2ccccc2N(CC(CO)CO)C1=O)c1cc2cc(Cl)ccc2[nH]1` (configuration not stated) are within 0.2 log units of each other in logD: 3.6 for the first, 3.64 for the second.

`Clc1cccc(-n2nnnc2NCc2ccccc2Oc2ccccn2)c1Cl` and `CC[C@H](NC(=O)c1c([S+](C)[O-])c(-c2ccccc2)nc2cc(F)ccc12)c1ccccc1` (some centres not stated) are the same in logD: 3.62 for the first, 3.62 for the second.

`Cc1nc(C(=O)[C@@H](C)Oc2ccc(SCCCCCc3ccccc3)cc2)sc1CCCC(=O)O` and `O=C(COc1ccc(SCCCCCc2ccccc2)cc1)COc1ccc(C(=O)O)cc1` are within 0.2 log units of each other in logD: 3.58 for the first, 3.63 for the second.

`COc1ccc(OC)c(-c2cccc3c(N)c(C(=O)NC(C)C)nnc23)c1` and `COc1cc2ncc(C(N)=O)c(Nc3cccc(Cl)c3F)c2cc1OC` are within 0.2 log units of each other in logD: 3.65 for the first, 3.6 for the second.

`O=C1O[C@@H](Cn2nncc2F)CN1c1ccc(C2=CCS(=O)(=O)CC2)c(F)c1` and `Cn1cncc1-c1c2c(=O)n(C3CC3)c(=O)n(CC3CC3)c2nn1Cc1ccnc2ccc(Cl)cc12` are within 0.2 log units of each other in logD: 3.54 for the first, 3.53 for the second.

`N#Cc1cc(O)cc2nc(-c3ccc(O)cc3)oc12` and `O=C(Nc1ccc(F)cc1F)c1cc(Cl)ccc1O` are the same in logD: 3.6 for the first, 3.6 for the second.

`CCOc1cccc(Nc2nnc(C(=O)Nc3ccc(N4CCOCC4)nc3)o2)c1` and `O=C(Nc1ccc(Cl)nc1)c1ccc(F)c(Cl)c1` are within 0.2 log units of each other in logD: 3.6 for the first, 3.64 for the second.

`CC#CCn1c(=O)c2c(-c3cncn3C)n(Cc3ccnc4ccc(Cl)cc34)nc2n(CC2CC2)c1=O` and `C#CC(C)n1c(=O)c2c(-c3cncn3C)n(Cc3ccnc4ccc(Cl)cc34)nc2n(CC2CC2)c1=O` (configuration not stated) are within 0.2 log units of each other in logD: 3.61 for the first, 3.59 for the second.

`C[C@H]1O[C@@H](n2cnc3c(N)nc(OCC45CC6CC(CC(C6)C4)C5)nc32)[C@H](O)[C@@H]1O` and `COc1ccc2c(C)cc(N[C@H]3CCC[C@H](NCc4cccc(OC(F)(F)F)c4)C3)nc2c1` are within 0.2 log units of each other in logD: 3.58 for the first, 3.61 for the second.

`Cc1cn([C@H]2CCCN(Cc3cccc(Oc4cccc(Br)c4)c3)C2)c(=O)[nH]c1=O` and `Cn1c(CN2CCC(c3ccccc3)CC2)nc2ccccc21` are within 0.2 log units of each other in logD: 3.68 for the first, 3.6 for the second.

`CC#Cc1ccnc(-c2cc(C3(C4CC4)N=C(C)C(N)=N3)ccc2O)c1` (configuration not stated) and `Cc1ncc(-c2ccnc(Nc3ccc(C#N)cc3)n2)n1C(C)C` are within 0.2 log units of each other in logD: 3.6 for the first, 3.62 for the second.

`O=C1CCCc2nc(C#Cc3ccccc3)ccc21` and `Cc1cccc(C#Cc2ccccc2)n1` are within 0.2 log units of each other in logD: 3.53 for the first, 3.6 for the second.

`CCCc1c(OCCCSc2ccc(CC(=O)O)cc2Cl)ccc(C(=O)CC)c1O` and `COC(=O)[C@H](Cc1ccc([N+](=O)[O-])cc1)NC(=O)c1cccc2ccccc12` are within 0.2 log units of each other in logD: 3.57 for the first, 3.58 for the second.

`Cc1cnc2c(N[C@H](C)CO)nc(SCc3cccc(F)c3F)nc2n1` and `COc1ccc(Cl)c(Nc2ncnc3cc(OC)cc(OC4CCN(C)CC4)c23)c1` are within 0.2 log units of each other in logD: 3.55 for the first, 3.6 for the second.

`FC(F)(F)c1cc(CO[C@H]2CCCN[C@H]2c2ccccc2)cc(C(F)(F)F)c1` and `Cn1c(CN2CCN(c3ccc(Cl)cc3)CC2)nc2ccccc21` are within 0.2 log units of each other in logD: 3.6 for the first, 3.54 for the second.

`C1CCc2c(c3c(N4CCCC4)nc(N4CCCC4)nc3n2CCN2CCOCC2)C1` and `CCN(CC)S(=O)(=O)c1ccc(NC(=O)[C@@](C)(O)C(F)(F)F)c(Cl)c1` are within 0.2 log units of each other in logD: 3.6 for the first, 3.66 for the second.
